Tested on: HeLa
Assay: Cytotoxicity against human HeLa cells by WST-8 assay
Type: functional, cell-based

SMILES	IC50
CC1=C[C@@H]2[C@@H](CC1)[C@@](C)(N=C=S)CC[C@H]2C(C)C (relative stereo)	73.7 µM
[C-]#[N+][C@@]1(C)CC[C@H]2[C@@H]3[C@@H](C(C)=CC[C@@H]31)[C@@H](C=C(C)C)C[C@@H]2C (relative stereo)	20 µM
C[C@H]1CC[C@]23[C@H]1[C@H]2[C@@H](C(C)(C)N=C=S)CC[C@@H]3C (relative stereo)	57.8 µM
C[C@H]1C[C@H]2CC(C)(C)CC3=CC[C@@]4(N=C=O)[C@@H]([C@@H]1CC[C@@H]4C)[C@@H]32	38.3 µM
C[C@H]1C[C@H]2CC(C)(C)CC3=CC[C@@]4(N=C=S)[C@@H]([C@@H]1CC[C@@H]4C)[C@@H]32	88.7 µM
[C-]#[N+][C@@]12CC[C@H](C)C3=C(C=C(C)C)C[C@H](C)[C@@H](CC[C@@H]1C)[C@@H]32 (relative stereo)	11.2 µM

Source: ChEMBL document CHEMBL1151205, “Terpene isocyanides, isocyanates, and isothiocyanates from the Okinawan marine sponge Stylissa sp” (J Nat Prod, 2004)
